Test results reported in patent publication US20250230138A1, “COMPOUNDS HAVING A T-STRUCTURE FORMED BY AT LEAST FOUR CYCLES FOR USE IN THE TREATMENT OF CANCER AND OTHER INDICATIONS” (TheRas, Inc., priority 2022, published 2025).
Like-named read-outs stand apart in the source and are kept apart here.

Legend:
pAKT in BT474 cells = assay: Cell-based pAKT HTRF assay in BT474 cells; conditions: BT474 cells, 4 hr incubation, read-out: pAKT inhibition IC50 in BT474 cells
In short: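 Cells are seeded on day 1 and dosed on day 2 with a 9-point curve (3 μM top, 3-fold). After 4 hr they are lysed and the lysate is mixed with d2- and Eu Cryptate-labelled antibodies. HTRF is read after 4–24 h at room temperature.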

[1] = target: Cys242 in human PIK3CA (157-299) (Homo sapiens (Human), UniProt P42336); assay: Covalent modification assay using MALDI-TOF MS; assay type: biochemical; conditions: 4 h reaction time point
In short: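 Covalent adduct formation was read by linear-mode MALDI-TOF with sinapinic acid matrix, reported as modified-protein peak height divided by total protein peak heights. Reactions held PIK3CA (157-299) at 1 or 3.33 μM in HEPES/NaCl/MgCl2 buffer, pH 7.3, sampled after 15 min to 4 h at room temperature.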

[2] = 3.33 μM protein target, 1:7.5 protein to compound ratio (compounds 1-852)
[3] = 1 μM protein target, 1:5 protein to compound ratio (compounds 853-1279)
[4] = Homo sapiens, BT-474, Compounds 10-999

Cys242 in human PIK3CA (157-299), sequence (P42336 157-299): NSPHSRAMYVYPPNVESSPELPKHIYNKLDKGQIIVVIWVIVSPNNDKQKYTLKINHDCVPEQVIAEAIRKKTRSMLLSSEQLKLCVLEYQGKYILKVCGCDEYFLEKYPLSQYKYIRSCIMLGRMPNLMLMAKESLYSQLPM

SMILES | IC50 (pAKT in BT474 cells; Compounds 10-999) | % of modification [1, 2] | IC50 (pAKT in BT474 cells; Compounds 1000-1279) | % of modification [1, 3] | IC50 (pAKT in BT474 cells; [4])
C=CC(=O)N1Cc2cc(-c3nc(-c4cnn(C5CCC5)c4)c4ccsc4c3-c3c(F)cc(F)cc3OCCOC)nn2C[C@H]1C [Compound 723] | < 100 nM | A (percent of modification of PIK3CA protein ≥75%) | – | – | –
C=CC(=O)N1CCn2nc(-c3nc(-c4ccc(C5(C(=O)NC)CC5)cc4)c4ccsc4c3-c3c(F)cc(F)cc3OCCOC)cc2[C@H]1C [Compound 1134] | – | – | < 100 nM | A (percent of modification of PIK3CA protein ≥75%) | –
C=CC(=O)N1CCc2ncc(-c3nc(-c4cnc5c(c4)CN(C)CC5)c4ccsc4c3-c3c(F)cc(F)cc3OCCOC)cc2C1 [Compound 378] | < 100 nM | A (percent of modification of PIK3CA protein ≥75%) | – | – | –
C=CC(=O)N1CCc2nc(-c3nc(-c4ccc(C5(N)CCC5)cc4)c4ccsc4c3-c3c(F)cc(F)cc3OCCOC)sc2C1 [Compound 436] | 100 to 1000 nM | A (percent of modification of PIK3CA protein ≥75%) | – | – | –
C=CC(=O)N1CC(n2cc(-c3nc(-c4cnn(CC(F)F)c4)c4ccsc4c3-c3ccc(F)cc3OCCOC)cn2)C1 [Compound 232] | < 100 nM | A (percent of modification of PIK3CA protein ≥75%) | – | – | –
C=CC(=O)N1CCn2nc(-c3nc(-c4ccc5nn(C)cc5c4)c4ccsc4c3-c3c(F)cc(F)cc3OC[C@@H](C)O)cc2[C@H]1C [Compound 760] | < 100 nM | A (percent of modification of PIK3CA protein ≥75%) | – | – | –
C=CC(=O)N1Cc2cc(-c3nc(-c4ccc5nn(C)cc5c4)c4ccsc4c3-c3c(F)cc(F)cc3OC(C)C)nn2C[C@H]1C [Compound 525] | < 100 nM | A (percent of modification of PIK3CA protein ≥75%) | – | – | –
C/C=C/C(=O)N1CC(n2cc(-c3nc(-c4ccc5c(c4)CCNC5)c4ccsc4c3-c3ccc(F)cc3OC)cn2)C1 [Compound 129] | > 3000 nM | D (percent of modification <25%) | – | – | –
C=CC(=O)N1CC(n2cc(-c3nc(N4CCC5(CC4)CNC5)c4ccsc4c3-c3ccc(F)cc3OCCOC)cn2)C1 [Compound 98] | 1000 to 3000 nM | A (percent of modification of PIK3CA protein ≥75%) | – | – | –
C=CC(=O)N1CCc2nc(-c3nc(-c4cccc(C(C)(C)O)c4)c4ccsc4c3-c3c(F)cc(F)cc3OCCOC)sc2C1 [Compound 429] | 100 to 1000 nM | A (percent of modification of PIK3CA protein ≥75%) | – | – | –
C=CC(=O)N1CC[C@H](n2cc(-c3nc(-c4ccnc(N)c4)c4ccsc4c3-c3ccc(F)cc3OCC3CCNC(=O)C3)ccc2=O)C1 (stereo partly drawn) [Compound 241] | 100 to 1000 nM | A (percent of modification of PIK3CA protein ≥75%) | – | – | –
C=CC(=O)N1CCn2nc(-c3nc(-c4ccc(=O)n(C(C)C)c4)c4ccsc4c3-c3c(F)cc(F)cc3OCCO)cc2[C@H]1C [Compound 980] | < 100 nM | – | – | A (percent of modification of PIK3CA protein ≥75%) | –
C=CC(=O)N1CCn2nc(-c3nc(-c4cnc5c(c4)CN(C)CC5)c4c(c3-c3c(F)cc(F)cc3OCCOC)CCC4)cc2C1C (stereo not drawn) [Compound 1243] | – | – | < 100 nM | A (percent of modification of PIK3CA protein ≥75%) | –
C=CC(=O)N1Cc2cc(-c3nc(-c4cnn(CC(C)(C)O)c4)c4ccsc4c3-c3c(F)cc(F)cc3OCCOC)nn2[C@@H](C)C1 [Compound 491] | < 100 nM | A (percent of modification of PIK3CA protein ≥75%) | – | – | –
C=CC(=O)N1Cc2cc(-c3nc(-c4ccc5c(=O)n(C)ncc5c4)c4ccsc4c3-c3c(F)cc(F)cc3OCCOC)nn2C[C@H]1C [Compound 849] | < 100 nM | A (percent of modification of PIK3CA protein ≥75%) | – | – | –
C=CC(=O)N1CCn2nc(-c3nc(-c4cccc(=O)n4C)c4ccsc4c3-c3c(F)cc(F)cc3OCCOC)cc2C1C (stereo not drawn) [Compound 1020] | – | – | < 100 nM | A (percent of modification of PIK3CA protein ≥75%) | –
C=CC(=O)N1CCn2nc(-c3nc(-c4cnc5c(c4)CN(C)CC5)c4ccsc4c3-c3c(F)cc(F)cc3OC)cc2[C@H]1C (single isomer, unassigned) [Compound 1147] | – | – | < 100 nM | A (percent of modification of PIK3CA protein ≥75%) | –
C=CC(=O)N1CCn2nc(-c3nc(-c4ccc5ncn(C)c5c4)c4ccsc4c3-c3c(F)cc(F)cc3OCCO)cc2C1C (stereo not drawn) [Compound 773] | < 100 nM | A (percent of modification of PIK3CA protein ≥75%) | – | – | –

SMILES | IC50 (pAKT in BT474 cells; Compounds 10-999) | % of modification [1, 2] | IC50 (pAKT in BT474 cells; Compounds 1000-1279) | % of modification [1, 3] | IC50 (pAKT in BT474 cells; [4])
C=CC(=O)N1CCc2nc(-c3nc(-c4ccc5nn(C)cc5c4)c4ccsc4c3-c3c(F)cc(F)cc3OCCOC)sc2C1 [Compound 947] | < 100 nM | – | – | A (percent of modification of PIK3CA protein ≥75%) | –
C=CC(=O)N1CCc2ncc(-c3nc(-c4cn(C)cn4)c4ccsc4c3-c3c(F)cc(F)cc3OC(C)C)cc2C1 [Compound 421] | < 100 nM | A (percent of modification of PIK3CA protein ≥75%) | – | – | –
C=CC(=O)N1CCn2nc(-c3nc(-c4ccc5oc(C)nc5c4)c4ccsc4c3-c3c(F)cc(F)cc3OCCO)cc2C1C (stereo not drawn) [Compound 789] | < 100 nM | A (percent of modification of PIK3CA protein ≥75%) | – | – | –
C=CC(=O)N1CCc2nc(-c3nc(-c4ccc5c(c4)CS(=N)(=O)C5)c4ccsc4c3-c3ccc(F)cc3OCCOC)sc2C1 (stereo not drawn) [Compound 151, 1-[2-[7-[4-fluoro-2-(2-methoxyethoxy)phenyl]-4-(2-imino-2-oxo-1,3-dihydro-2-benzothiophen-5-yl)thieno[3,2-c]pyridin-6-yl]-6,7-dihydro-4H-thiazolo[5,4-c]pyridin-5-yl]prop-2-en-1-one] | – | A (percent of modification of PIK3CA protein ≥75%) | – | – | < 100 nM
C=CC(=O)N1CCc2ccc(-c3nc(-c4ccc5c(c4)CCN(C)C5)c4ccsc4c3-c3ccc(F)cc3OCCOC)cc2C1 [Compound 83] | < 100 nM | A (percent of modification of PIK3CA protein ≥75%) | – | – | –
C=CC(=O)N1CCn2nc(-c3nc(-c4ccnc(N)c4)c4ccsc4c3-c3ccc(F)cc3OC(F)F)cc2C1 [Compound 226] | < 100 nM | A (percent of modification of PIK3CA protein ≥75%) | – | – | –
C=CC(=O)N1CCn2nc(-c3nc(-c4ccc5c(c4)CN(C)CC5)c4c(c3-c3c(F)cc(F)cc3OCCOC)CCC4)cc2C1C (stereo not drawn) [Compound 1244] | – | – | < 100 nM | A (percent of modification of PIK3CA protein ≥75%) | –
C=CC(=O)N1CCn2nc(-c3nc(N4CC5(CNC(=O)C5)C4)c4ccsc4c3-c3c(F)cc(F)cc3OCCOC)cc2C1C (stereo not drawn) [Compound 1013] | – | – | 100 to 1000 nM | A (percent of modification of PIK3CA protein ≥75%) | –
C=CC(=O)N1CCn2nc(-c3nc(-c4ccc5c(c4)ncn5C)c4ccsc4c3-c3c(F)cc(F)cc3OCCO)cc2[C@H]1C [Compound 651] | < 100 nM | C (25%≤percent of modification <50%) | – | – | –
C=CC(=O)N1CCn2nc(-c3nc(-c4cnnc(C)c4)c4ccsc4c3-c3c(F)cc(F)cc3OCC(C)O)cc2C1C (stereo not drawn) [Compound 823] | < 100 nM | A (percent of modification of PIK3CA protein ≥75%) | – | – | –
C=CC(=O)N1CCn2nc(-c3nc(-c4ccc5c(c4)ncn5C)c4ccsc4c3-c3c(F)cc(F)cc3OC[C@@H](C)O)cc2[C@H]1C [Compound 761] | < 100 nM | A (percent of modification of PIK3CA protein ≥75%) | – | – | –
C=CC(=O)N1CCn2nc(-c3nc(-c4ccc5c(cnn5C)c4)c4ccsc4c3-c3c(F)cc(F)cc3OCCO)cc2[C@H]1C [Compound 908, 1-((R)-2-((S)-7-(2,4-difluoro-6-(2-hydroxyethoxy)phenyl)-4-(1-methyl-1H-indazol-5-yl)thieno[3,2-c]pyridin-6-yl)-4-methyl-6,7-dihydropyrazolo[1,5-a]pyrazin-5(4H)-yl)prop-2-en-1-one] | – | – | – | A (percent of modification of PIK3CA protein ≥75%) | < 100 nM
C=CC(=O)N1Cc2cc(-c3nc(-c4ccc5c(c4)CN(C)C5=O)c4ccsc4c3-c3c(F)cc(F)cc3OCCOC)nn2CC1C (stereo not drawn) [Compound 474] | < 100 nM | A (percent of modification of PIK3CA protein ≥75%) | – | – | –
C=CC(=O)N1CCc2ncc(-c3nc(-c4cnc5c(c4)CN(C)CC5(F)F)c4ccsc4c3-c3c(F)cc(F)cc3OCCOC)cc2C1 [Compound 1279] | – | – | < 100 nM | A (percent of modification of PIK3CA protein ≥75%) | –
C=CC(=O)N1CCn2nc(-c3nc(-c4cnn(C)c4)c4ccsc4c3-c3c(F)cc(F)cc3OCCO)cc2[C@@H]1C [Compound 640] | < 100 nM | A (percent of modification of PIK3CA protein ≥75%) | – | – | –
C=CC(=O)N1CCn2nc(-c3nc(-c4ccc(C(=O)N5CC(F)C(F)C5)cc4)c4ccsc4c3-c3c(F)cc(F)cc3OCCOC)cc2C1C (stereo not drawn) [Compound 1189] | – | – | < 100 nM | A (percent of modification of PIK3CA protein ≥75%) | –
C=CC(=O)N1Cc2cc(-c3nc(-c4cnc5c(c4)CNC5=O)c4ccsc4c3-c3c(F)cc(F)cc3OCCOC)nn2CC1C (stereo not drawn) [Compound 554] | < 100 nM | A (percent of modification of PIK3CA protein ≥75%) | – | – | –
C=CC(=O)N1Cc2cc(-c3nc(-c4cnnc(C)c4)c4ccsc4c3-c3c(F)cc(F)cc3OC[C@@H](C)O)nn2C[C@H]1C [Compound 743] | < 100 nM | A (percent of modification of PIK3CA protein ≥75%) | – | – | –
